Legend:
N2 healthy control worms = test: Automated motility assay, healthy worms; type: in vivo, C. elegans; conditions: same concentration range; compared with effect in Aβ worms
Protocol: N2 C. elegans var. Bristol used as controls (also labelled “healthy”). Generation time is about 3 days. Brood size is about 350, wild type phenotype, sub-cultured in 1973 (S. Brenner, The genetics of Caenorhabditis elegans. Genetics. 77, 71-94 (1974)).
Briefly, Netoglitazone stocks (5 mM in 100% DMSO) were used at an appropriate concentration to seed 9-cm NGM plates. Plates were then placed in a laminar flow hood at room temperature (22° C.) for up to 4 hours to dry. C. elegans cultures were then transferred onto media seeded with compound as L4 stage or Day 3 for late treatments and incubated at 24° for the whole experiment. […]
All C. elegans populations were cultured at 20° C. and developmentally synchronized from a 4 h egg-lay. At 64-72 h post-egg-lay (time zero), individuals were transferred to FUDR plates, and body movements were assessed over the times indicated. At different ages, the animals were washed off the plates with M9 buffer and spread over an OP-50 unseeded 9 cm plate, after which their movements were recorded at 20 fps using a recently developed microscopic procedure (M. Perni et al., Massively parallel C. elegans tracking provides multi-dimensional fingerprints for phenotypic discovery. J. Neurosci. Methods. 306, 57-67 (2018)) for 1 min. Up to 600 animals were counted in each experiment in duplicate unless stated otherwise. […]

Aβ42 oligomers = molecular target: T1, Aβ42 oligomers (Homo sapiens, UniProt P05067); test: Ca2+ influx assay (lipid vesicle disruption by aggregates); type: biochemical; conditions: 2 μM Aβ42; 5-fold excess added at 0 h; measured at 2 h
T1 construct: […]; made in house; host or cells: E. coli BL21 Gold (DE3)
Protocol: Single vesicles tethered to PLL-PEG coated borosilicate glass coverslides (VWR International, 22×22 mm, product number 63 1-0122) were placed on an oil immersion objective mounted on an inverted Olympus IX-71 microscope. Each coverslide was affixed at Frame-Seal incubation chambers and was incubated with 50 μL of HEPES buffer of pH 6.5. Just before the imaging, the HEPES buffer was replaced with 50 μL Ca^2+ containing buffer solution L-15. 16 (4×4) images of the coverslide were recorded under three different conditions (background, in the presence of Aβ42 and after addition of ionomycin (Cambridge Bioscience Ltd, Cambridge, UK), respectively). The distance between each field of view was set to 100 μm, and was automated (bean-shell script, Micromanager) to avoid any user bias. After each measurement the script allowed the stage (Prior H117, Rockland, Mass., USA) to move the field of view back to the start position such that identical fields of view could be acquired for the three different conditions. Images of the background were acquired in the presence of L15 buffer. For each field of view 50 images were taken with an exposure time of 50 ms. […] The recorded images were analysed using ImageJ to determine the fluorescence intensity of each spot under the three different conditions in the presence of an aggregation mixture incubated with and without Netoglitazone.

GMC101 (Aβ worms) = test: NIAD-4 plaque staining in living Aβ worms; type: in vivo, C. elegans
Protocol: Plaques staining was carried out as previously described (J. Habchi et al. (2016); M. Perni et al., A natural product inhibits the initiation of α-synuclein aggregation & suppresses its toxicity. Proc. Natl. Acad. Sci. U.S.A. 114, E1009-E1017 (2017)). Briefly, live transgenic animals were incubated with NIAD-4 over a range of concentrations and times, with 1 μM NIAD-4 (0.1% DMSO in M9 buffer) for 4 hours at room temperature. After staining, animals were allowed to recover on NGM plates for about 24 hours to allow destaining via normal metabolism. Stained animals were mounted on 2% agarose pads containing 40 mM NaN3 as anaesthetic on glass microscope slides for imaging. Images were captured with a Zeiss Axio Observer D1 fluorescence microscope (Carl Zeiss Microscopy GmbH) with a 20× objective and a 49004 ET-CY3/TRITC filter (Chroma Technology Corp). Fluorescence intensity was calculated using ImageJ software (National Institutes of Health) and then normalized as the corrected total cell fluorescence. Only the head region was considered because of the high background signal in the guts. All experiments were carried out in triplicate, and the data from one representative experiment are shown. Statistical significance was determined using t tests.

T1 sequence (P05067 671-713): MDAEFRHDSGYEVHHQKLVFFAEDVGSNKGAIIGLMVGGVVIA

O=C1NC(=O)C(Cc2ccc3cc(OCc4ccccc4F)ccc3c2)S1 (stereo not shown) [Netoglitazone]
effect on mobility of healthy worms (N2 healthy control worms): negligible
protection against vesicle disruption (Ca2+ influx) by Aβ42 species (Aβ42 oligomers): protected against the neurotoxic species-induced vesicle disruption
plaques load (NIAD-4 fluorescence) (GMC101 (Aβ worms); 0.5 μM, treatment at L4, day 6 of adulthood): significantly decrease the plaques load
plaques load after late administration (GMC101 (Aβ worms); administered at D3 of adulthood, measured at D6): significant decrease of the plaques load

— patent US20210145802A1, “THERAPY FOR OPHTHALMOLOGICAL CONDITIONS” (WREN THERAPEUTICS LIMITED, priority 2018, published 2021)
